Results reported in patent publication US20240115744A1, “FIBRIN-BINDING COMPOUNDS FOR IMAGING AND TREATMENT” (Collagen Medical, LLC, priority 2019, published 2024).
*1 amine or outer side, *2 acyl side, *3 side chain or, on linkers, in order; H or OH if unused. Where a SMILES comes first, the peptide text is derived from it. Bridges are numbered along the chain shown (N, C = ends). [ ]: non-standard residue; d: D form. The star is where a group is joined. NODAGA = O=C(O)CN1CCN(CC(=O)O)CCN(C(CCC(=O)*)C(=O)O)CC1; Tyr(3-Cl) = N[C@@H](Cc1ccc(O)c(Cl)c1)C(=O)O; Nicotinoyl(6-F) = O=C(c1ccc(F)nc1)*; X1 = O=C([C@@H]1CC(O)CN1[*:1])[*:2]; Hyp = O=C(O)[C@@H]1C[C@@H](O)CN1

T1: human fibrin (human, UniProt P02671 36-629; P02675 45-491; P02679 27-437, limits assumed)
T1 construct: also called clotted fibrin; immobilized fibrin
T1 sequence (looked up) 1: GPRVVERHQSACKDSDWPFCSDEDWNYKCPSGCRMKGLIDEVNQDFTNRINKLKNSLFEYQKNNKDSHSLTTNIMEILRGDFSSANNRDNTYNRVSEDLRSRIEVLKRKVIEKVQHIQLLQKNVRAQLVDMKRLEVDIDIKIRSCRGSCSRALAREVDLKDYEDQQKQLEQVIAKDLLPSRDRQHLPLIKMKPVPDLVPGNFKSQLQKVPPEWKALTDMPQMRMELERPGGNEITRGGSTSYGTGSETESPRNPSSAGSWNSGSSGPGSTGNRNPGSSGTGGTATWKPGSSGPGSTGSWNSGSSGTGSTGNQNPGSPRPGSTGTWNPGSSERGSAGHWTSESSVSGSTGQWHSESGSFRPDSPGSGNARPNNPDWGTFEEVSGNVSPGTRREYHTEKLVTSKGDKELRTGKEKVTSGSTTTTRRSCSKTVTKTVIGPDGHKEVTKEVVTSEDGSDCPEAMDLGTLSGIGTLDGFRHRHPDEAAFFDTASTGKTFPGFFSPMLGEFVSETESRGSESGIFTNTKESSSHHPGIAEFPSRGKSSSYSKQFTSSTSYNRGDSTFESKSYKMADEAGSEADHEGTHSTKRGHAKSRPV
T1 sequence (looked up) 2: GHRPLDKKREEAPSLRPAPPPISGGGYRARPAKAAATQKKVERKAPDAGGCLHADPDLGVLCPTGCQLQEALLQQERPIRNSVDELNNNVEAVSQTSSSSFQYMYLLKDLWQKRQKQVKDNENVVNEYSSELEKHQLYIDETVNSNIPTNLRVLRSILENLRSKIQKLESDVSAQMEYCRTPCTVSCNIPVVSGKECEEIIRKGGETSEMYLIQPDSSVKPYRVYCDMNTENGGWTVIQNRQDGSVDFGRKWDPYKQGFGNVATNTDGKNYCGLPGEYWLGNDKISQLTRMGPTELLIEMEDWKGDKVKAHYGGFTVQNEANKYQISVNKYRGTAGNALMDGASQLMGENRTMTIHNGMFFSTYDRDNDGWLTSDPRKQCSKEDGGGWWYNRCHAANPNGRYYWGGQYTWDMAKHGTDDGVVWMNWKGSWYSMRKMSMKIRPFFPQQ
T1 sequence (looked up) 3: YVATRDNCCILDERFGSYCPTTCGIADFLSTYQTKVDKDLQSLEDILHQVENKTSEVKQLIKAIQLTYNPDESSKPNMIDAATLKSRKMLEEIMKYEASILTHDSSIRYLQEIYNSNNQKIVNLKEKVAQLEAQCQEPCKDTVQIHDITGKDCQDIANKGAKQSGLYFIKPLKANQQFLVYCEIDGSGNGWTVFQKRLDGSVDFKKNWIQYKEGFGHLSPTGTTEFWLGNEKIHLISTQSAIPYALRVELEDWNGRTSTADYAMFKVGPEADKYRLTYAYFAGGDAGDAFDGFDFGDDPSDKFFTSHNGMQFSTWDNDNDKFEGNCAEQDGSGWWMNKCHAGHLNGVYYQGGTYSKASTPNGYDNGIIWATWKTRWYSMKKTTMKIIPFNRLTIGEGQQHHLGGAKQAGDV


Tests used:
[1] = target: T2, soluble fibrin fragment DD(E) (Homo sapiens, UniProt P02671+P02675+P02679, DEL433-453); experiment: Fluorescence polarization DD(E) binding/displacement assay; settings: for Ki: displacement of TRITC-labelled peptide from DD(E), TBS·Ca with 2% DMSO, estimated uncertainty ±10%, read-out: Ki; for Kd: sub-micromolar affinity, read-out: affinity (Kd) to fibrin as assessed by DD(E) assay
T2 construct: partial plasmin digestion of purified fibrin gel followed by size-exclusion chromatographic purification; made in house
Procedure: DD(E) was prepared using a published procedure which involved partial plasmin digestion of purified fibrin gel followed by size-exclusion chromatographic purification, and purity was assessed by SDS-PAGE. Peptides modified at the N-terminus with tetramethyl-rhodamine (TRITC) dye bind to DD(E). Direct fluorescent peptide binding to DD(E) was measured by a fluorescence polarization (FP) assay. The anisotropy (robs) of the fluorescently labeled peptides binding to DD(E) (0-20 μM) was measured in Tris buffered saline (50 mM Tris, 100 mM NaCl and 2 mM CaCl2) at fixed compound concentrations, and the data were fit to a single site model (Eq. 1) to obtain the dissociation constant (Kd) for the DD(E)·(fluorescent peptide) complex.
Displacement of the fluorescent peptide by non-fluorescent compound was measured to determine inhibition constants (Ki). In the presence of an inhibitor, an apparent dissociation constant for the fluorescent compound (Kd app) is determined using Eq. 2. The inhibition constant Ki is related to Kd app by Eq. 2, wherein Kd is the true dissociation constant of the fluorescent compound measured in the absence of inhibitor.
Non-labeled peptide binding to DD(E) was measured by a compound displacement assay, where a DD(E)/Fl·pep complex formed at fixed concentrations of DD(E) and Fl·pep was titrated with increasing concentrations of unlabeled compound. The compound was assayed by mixing DD(E) (4.0 μM, 10 μL) and TRITC (0.1 μM, 10 μL) with increasing concentrations of competing peptide (0.4-100 μM, 20 μL) in TBS·Ca with 2% DMSO in a final volume of 40 μL. Fluorescence polarization of the samples (10 μL, triplicate wells) in ascending concentrations was measured in a 384-well microplate (Corning flat black plate), using a Tecan Infinite 200 Pro fluorescence microplate reader equipped with fluorescence polarization filters, a 535 nm excitation filter and a 590 nm fluorescence emission filter. Average polarization (mP units) readings for each dilution of the compound of interest was converted to anisotropy (r) using Eq. 3.
The data defined a displacement curve (robs vs. [Peptide]), and the inhibitory binding constant, Ki, was determined by least squares fitting of the data (estimated uncertainty in Ki±10%). See Table 2 for the Ki values for the Compounds from Example 1.

[2] = Stability in rat plasma at 37° C. up to 4 h; assay type: in vitro ADME; settings: after 4 h
Procedure: The six compounds identified in Example 3 (Compounds 2, 3, 4, 5, 6, and 7) were assayed for stability in rat plasma at 37° C. for up to 4 h. Compounds were dissolved in DMSO to a make a stock solution (0.6 mM). Plasma (995 μL) was spiked with peptide stock solution (5 μL). Incubations were carried at a test compound concentration of 3 μM with a final DMSO concentration of […]. The spiked plasma samples were incubated at 37° C. for 4 h. Aliquots (300 μL) were removed at 0, 0.5, 1, 2 and 4 h and reactions were terminated by adding 600 μL of cold acetonitrile with 0.1% formic acid containing carbutamide (25 μg/mL) as an internal standard. Simultaneously, a plasma sample (995 μL) containing a mixture of benfluorex, propranolol and nortriptyline (40 μM in DMSO) control compounds was also incubated alongside each batch of test compounds and terminated similarly. […] Following centrifugation, the concentration of the compound of interest in the supernatant was quantified by LCMS. […] The peak area for each detected compound was measured to determine the % remaining of each compound and the result was compared with standards of pure compound and compound immediately isolated from plasma (t=0 sample). All assay samples were analyzed in triplicate. […]

[3] = Blood analysis in rat model of carotid artery crush injury (blood clearance); assay type: in vivo; settings: relative to the other compounds compared
Procedure: Rat carotid endothelial injury model in vivo studies were conducted, wherein the common carotid artery is isolated and crushed briefly with a hemostat, resulting in mural thrombus formation at the site of the crush. The vessel wall fibrin is then imaged with our PET compounds. All six compounds were evaluated in this model.
Adult male Wistar rats were anesthetized by isoflurane (1-2% in medical air). Body temperature was maintained at 37° C. using a thermo-regulated heating pad. The right femoral vein and artery were cannulated for compound injection and blood sampling, respectively. Endothelial injury was induced by crush injury to the right common carotid artery (1-2 cm proximal to the carotid bifurcation) by clamping the vessel with a hemostat for 5 minutes. Immediately following the surgical procedures, rats were placed in a micro-PET/CT scanner. Compound (200-600 μL) was injected, PET-CT images were acquired, and blood samples were drawn from the femoral artery prior to compound injection and at 2, 5, 10, 15, 30, 60, 90, 120 min post injection. Tissues were harvested at the end for ex vivo analyses.
Blood samples were drawn from prior to probe injection and at 2, 5, 10, 15, 30, 60, 90, 120 min post injection. Each blood sample was weighed and counted using a gamma-counter. The activity in each sample was calculated as percent injected dose (% ID) per gram of tissue.

[4] = target: T1, human fibrin; experiment: radioactivity plate assay on immobilized human fibrin, in human plasma
[5] = target: T1, human fibrin; experiment: radioactivity plate assay on immobilized human fibrin, in TBS buffer
Procedure: Human fibrinogen (1 g) was dissolved in 30 mL of TBS buffer (50 mM Tris, 150 mM NaCl, 5 mM sodium citrate, pH 7.4) and dialyzed in a Slyde-a-Lyzer (20 000 MWCO, Cassette G2) at room temperature. After two changes of buffer, the fibrinogen was centrifuged (10 min, 2000×g) to remove undissolved material. Fibrinogen concentration was determined by measuring the absorbance at 280 nm. Stock fibrinogen solution concentration was 32.1 mg/mL. Fibrin plates with alternating rows of clotted fibrin and empty wells were prepared by polymerizing fibrinogen (100 μL; 2.5 mg/mL) with thrombin (1 U/mL) in TBS·citrate supplemented with 7 mM CaCl₂ in the wells of a 96 well polystyrene microtiter plate (Immulon-II®). […] Clottable protein in individual fibrinogen batches was determined by measuring 280 nm absorbance of the soluble fraction of the solution before and after thrombin treatment, and was generally ≥96% (Fibrin concentration, 7.56 μM).
An aliquot (100 μL) from a known activity (52 μCi in 10 mL TBS buffer) of Compound ¹⁸F-7 was added to a series of 12 known concentrations (0.01-50 μM) of cold Compound 7 (550 μL) in TBS buffer and mixed well to prepare 12 stock solutions. […] All aliquots from supernatants as well as an aliquot (90 μL) from each stock solution were weighed and activity of each was measured using a Cobra 5002 gamma counter. […]

| Molecule | Ki [1] | Kd [1] | stability in rat plasma [2] | blood clearance ([3]; rat carotid artery crush injury, 2-120 min post injection) | metabolic stability ([3]; rat) | Kd [4] | Kd [5] |
| --- | --- | --- | --- | --- | --- | --- | --- |
| CC[C@H](C)[C@H](NC(=O)[C@H](Cc1ccc(O)cc1)NC(=O)[C@@H]1CSSC[C@H](NC(=O)[C@@H](CCC(=O)O)NC(=O)[C@@H](Cc2ccc(O)cc2)NC(=O)c2ccc(F)nc2)C(=O)N2C[C@H](O)C[C@H]2C(=O)N[C@@H](Cc2ccc(O)c(Cl)c2)C(=O)NCC(=O)N[C@@H](CC(C)C)C(=O)N1)C(=O)N[C@@H](CCC(N)=O)C(N)=O [Compound 6, -y-e-C-Hyp-Y(3-Cl)-G-L-C-Y-I-Q-] ({Nicotinoyl(6-F)}-[dY][dE]C[Hyp][Tyr(3-Cl)]GLCYIQ-NH2; disulfide 3-8) | 340 nM | < 600 nM | greatest stability |  |  |  |  |
| CC[C@H](C)[C@H](NC(=O)[C@H](Cc1ccc(O)cc1)NC(=O)[C@@H]1CSSC[C@H](NC(=O)[C@@H](CCC(=O)O)NC(=O)[C@H](Cc2ccc(O)cc2)NC(=O)c2ccc(F)nc2)C(=O)N2C[C@H](O)C[C@H]2C(=O)N[C@@H](Cc2ccc(O)c(Cl)c2)C(=O)NCC(=O)N[C@@H](CC(C)C)C(=O)N1)C(=O)N[C@@H](CCC(N)=O)C(N)=O [Compound 7, -Y-e-C-Hyp-Y(3-Cl)-G-L-C-Y-I-Q-] ({Nicotinoyl(6-F)}-Y[dE]C[Hyp][Tyr(3-Cl)]GLCYIQ-NH2; disulfide 3-8) | 580 nM | < 600 nM | greatest stability |  |  |  |  |
| CC[C@H](C)[C@H](NC(=O)[C@H](Cc1cnc[nH]1)NC(=O)[C@@H]1CSSC[C@H](NC(=O)[C@@H](CCC(=O)O)NC(=O)[C@@H](Cc2ccc(O)cc2)NC(=O)CCC(C(=O)O)N2CCN(CC(=O)O)CCN(CC(=O)O)CC2)C(=O)N2CC(O)C[C@H]2C(=O)N[C@@H](Cc2ccc(O)c(Cl)c2)C(=O)NCC(=O)N[C@@H](CC(C)C)C(=O)N1)C(=O)N[C@@H](CCC(N)=O)C(N)=O (stereo partly shown) [Compound ^68Ga-19, metal not drawn] ({NODAGA}-[dY][dE]C[X1][Tyr(3-Cl)]GLCHIQ-NH2; disulfide 3-8) |  |  |  | faster blood clearance | better metabolic stability |  |  |
| {6‑(18F)fluoronicotinoyl}-Y[dE]C[Hyp][Tyr(3-Cl)]GLCYIQ-NH2 (disulfide 3-8, In the plate assay the tracer was mixed with 0.01-50 µM cold Compound 7; also called the fluorine-18 form of Compound 7) [Compound 18F-7] |  |  |  |  |  | 1800 nM | 1600 nM |
